From article PMC9080333 (RSC Advances, 2018)
Converted amounts (≈) assume the structure as drawn.

Assays:
[1] = test system: Mycobacterium tuberculosis H37Rv; assay: In vitro MTB Microplate Alamar Blue Assay; assay type: cell-based
RAW 264.7 cells = conditions: RAW 264.7 cell line, MTT assay, 50 μg mL^−1, 48 h incubation
[2] = Mycobacterium tuberculosis, H37RV, M. tuberculosis H37Rv, MABA, average of duplicates
[3] = Mycobacterium tuberculosis, H37RV, 168 h, M. tuberculosis H37Rv, MABA, average of duplicates
[4] = M. tuberculosis H37Rv, MABA, average of duplicates
[5] = against MTB, in vitro (conclusion)

Structure (SMILES) | MIC [1, 2] | Cytotoxicity in % inhibition at 50 μg mL^−1 (RAW 264.7 cells) | other results
NNC(=O)c1ccncc1 [Isoniazid, reference compound] | 0.437 µM (≈ 0.0599 µg/mL) |  | 
Cc1ccc(-n2nnc3c2CCC2(C=Cc4cc(C)ccc4O2)C3)cc1 (centres unmarked) [Compound 7b, 6′-Methyl-1-(p-tolyl)-1,4,6,7-tetrahydrospiro[benzo[d][1,2,3]triazole-5,2′-chromene]] |  |  | MIC [1, 3]: 75.8 µM (≈ 26 µg/mL)
CO[C@H]1/C=C/O[C@@]2(C)Oc3c(C)c(O)c4c(O)c(c(/C=N/N5CCN(C)CC5)c(O)c4c3C2=O)NC(=O)/C(C)=C\C=C\[C@H](C)[C@H](O)[C@@H](C)[C@@H](O)[C@@H](C)[C@H](OC(C)=O)[C@@H]1C [Rifampicin, reference compound] | 0.5 µM (≈ 0.411 µg/mL) |  | MIC [1, 4]: 0.50 µM (≈ 0.411 µg/mL)
Cc1ccc(-n2nnc3c2CCC2(C=Cc4cc(Cl)c(C)cc4O2)C3)cc1 (centres unmarked) [Compound 7l, 6′-Chloro-7′-methyl-1-(p-tolyl)-1,4,6,7-tetrahydrospiro[benzo[d][1,2,3]triazole-5,2′-chromene]] |  |  | MIC [1, 3]: 69 µM (≈ 26.1 µg/mL)
Cc1cc2c(cc1Cl)C=CC1(CCc3c(nnn3-c3ccccc3)C1)O2 (centres unmarked) [Compound 7k, 6′-Chloro-7′-methyl-1-phenyl-1,4,6,7-tetrahydrospiro[benzo[d][1,2,3]triazole-5,2′-chromene]] | 8.6 µM (≈ 3.13 µg/mL) | 24.90% | MIC [1, 4]: 8.60 µM (≈ 3.13 µg/mL)
COc1ccc(-n2nnc3c2CCC2(C=Cc4cc(C)ccc4O2)C3)cc1 (centres unmarked) [Compound 7d, 1-(4-Methoxyphenyl)-6′-methyl-1,4,6,7-tetrahydrospiro[benzo[d][1,2,3]triazole-5,2′-chromene]] | 4.34 µM (≈ 1.56 µg/mL) | 33.14% | MIC [1, 5]: 1.56 µg
Clc1ccc2c(c1)C=CC1(CCc3c(nnn3-c3ccccc3)C1)O2 (centres unmarked) [Compound 7f, 6′-Chloro-1-phenyl-1,4,6,7-tetrahydrospiro[benzo[d][1,2,3]triazole-5,2′-chromene]] | 17.9 µM (≈ 6.26 µg/mL) | 21.41% | 
Cc1ccc2c(c1)C=CC1(CCc3c(nnn3-c3ccc(Cl)cc3)C1)O2 (centres unmarked) [Compound 7c, 1-(4-Chlorophenyl)-6′-methyl-1,4,6,7-tetrahydrospiro[benzo[d][1,2,3]triazole-5,2′-chromene]] | 34.4 µM (≈ 12.5 µg/mL) |  | 
Cc1ccc2c(c1)C=CC1(CCc3c(nnn3-c3ccccc3)C1)O2 (centres unmarked) [Compound 7a, 6′-Methyl-1-phenyl-1,4,6,7-tetrahydrospiro[benzo[d][1,2,3]triazole-5,2′-chromene]] | 4.74 µM (≈ 1.56 µg/mL) | 30.23% | MIC [1, 5]: 1.56 µg
Cc1ccc(-n2nnc3c2CCC2(C=Cc4cc(Cl)ccc4O2)C3)cc1 (centres unmarked) [Compound 7g, 6′-Chloro-1-(p-tolyl)-1,4,6,7-tetrahydrospiro[benzo[d][1,2,3]triazole-5,2′-chromene]] | 68.9 µM (≈ 25.1 µg/mL) |  | 
Cc1cc2c(cc1Cl)C=CC1(CCc3c(nnn3-c3ccc(Cl)cc3)C1)O2 (centres unmarked) [Compound 7m, 6′-Chloro-1-(4-chlorophenyl)-7′-methyl-1,4,6,7-tetrahydrospiro[benzo[d][1,2,3]triazole-5,2′-chromene]] | 7.67 µM (≈ 3.05 µg/mL) | 24.76% | MIC [1, 4]: 7.87 µM (≈ 3.13 µg/mL)
Clc1ccc2c(c1)C=CC1(CCc3c(nnn3Cc3ccccc3)C1)O2 (centres unmarked) [Compound 7j, 1-Benzyl-6′-chloro-1,4,6,7-tetrahydrospiro[benzo[d][1,2,3]triazole-5,2′-chromene]] | 34.4 µM (≈ 12.5 µg/mL) |  | 
NC(=O)c1cnccn1 [pyrazinamide, reference compound] | 50.8 µM (≈ 6.25 µg/mL) |  | 
Clc1ccc(-n2nnc3c2CCC2(C=Cc4cc(Cl)ccc4O2)C3)cc1 (centres unmarked) [Compound 7h, 6′-Chloro-1-(4-chlorophenyl)-1,4,6,7-tetrahydrospiro[benzo[d][1,2,3]triazole-5,2′-chromene]] | 65.3 µM (≈ 25.1 µg/mL) |  | 
COc1ccc(-n2nnc3c2CCC2(C=Cc4cc(Cl)ccc4O2)C3)cc1 (centres unmarked) [Compound 7i, 6′-Chloro-1-(4-methoxyphenyl)-1,4,6,7-tetrahydrospiro[benzo[d][1,2,3]triazole-5,2′-chromene]] | 4.11 µM (≈ 1.56 µg/mL) | 29.36% | MIC [1, 5]: 1.56 µg
COc1ccc(-n2nnc3c2CCC2(C=Cc4cc(Cl)c(C)cc4O2)C3)cc1 (centres unmarked) [Compound 7n, 6′-Chloro-1-(4-methoxyphenyl)-7′-methyl-1,4,6,7-tetrahydrospiro[benzo[d][1,2,3]triazole-5,2′-chromene]] | 15.9 µM (≈ 6.26 µg/mL) | 22.64% | 
CC[C@@H](CO)NCCN[C@@H](CC)CO [Ethambutol, reference compound] | 7.64 µM (≈ 1.56 µg/mL) |  | 
Cc1cc2c(cc1Cl)C=CC1(CCc3c(nnn3Cc3ccccc3)C1)O2 (centres unmarked) [Compound 7o, 1-Benzyl-6′-chloro-7′-methyl-1,4,6,7-tetrahydrospiro[benzo[d][1,2,3]triazole-5,2′-chromene]] | 66.3 µM (≈ 25.1 µg/mL) |  | 
Cc1ccc2c(c1)C=CC1(CCc3c(nnn3Cc3ccccc3)C1)O2 (centres unmarked) [Compound 7e, 1-Benzyl-6′-methyl-1,4,6,7-tetrahydrospiro[benzo[d][1,2,3]triazole-5,2′-chromene]] |  |  | MIC [1, 3]: 75.8 µM (≈ 26 µg/mL)
